Results as given in US20140348756A1, “WATER-FREE FORMULATIONS HAVING A COOLING EFFECT” (Henkel AG & Co. KGaA, priority 2011, published 2014).

Tested on: test persons
Experiment: Measuring the cooling effect: antiperspirant aerosols evaluated by test persons
Assay type: in vivo
From the text: Measuring the Cooling Effect
Inventive antiperspirant aerosols were produced with various cooling agents and evaluated by test persons. It was shown that the cooling agent L-menthol is employable only in very small quantities, namely in quantities below 0.1 wt %, relative to the weight of the gasified aerosol formulation, corresponding to a weight fraction of 0.66 wt %, relative to the weight of the formulation, without taking into account the propellant. […] The skin compatibility in the armpit area was also worsened by menthol above 0.1 wt %, relative to the weight of the gasified aerosol formulation, corresponding to a weight fraction of 0.66 wt %, relative to the weight of the formulation, without taking into account the propellant. […] The proportion of nonresponders, 47%, was too high, however, and could not be reduced by increasing the concentration of L-menthol without the appearance of the cited inacceptable side effects.
The formulation B including 1.0 wt % of an extract of Rumex acetosa leaf in solution/suspension in isopropyl myristate with a dry substance weight of 0.5 wt %, relative to the weight of the raw material itself, was also found to be cooling by 57% of the test persons. […] The amount of dry substance of the oily Rumex acetosa leaf extract here amounted to 0.033 wt %, relative to the weight of the inventive composition without propellant. […]

- employable quantity of the cooling agent (relative to the weight of the formulation, without taking into account the propellant): < 0.66 wt %
- employable quantity of the cooling agent (relative to the weight of the gasified aerosol formulation): below 0.1 wt %
Compound: CC(C)[C@@H]1CC[C@@H](C)C[C@H]1O [L-menthol]
